Read-outs that look alike come from different tables or passages of the source.
Experiments:
SARS-CoV-2 NSP3 Mac1 [1] = target: T1, SARS-CoV-2 NSP3 Mac1 (Severe acute respiratory syndrome coronavirus 2, UniProt P0DTD1); type: binding; design: contains a conserved macrodomain enzyme (Mac1); settings: for Spearman est (compound concentration vs apparent Tm): DSF dose responsiveness, 1 µM nsp3 mac1, adj p given
Outline: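 ΔTma values are thermal shifts relative to a co-located DMSO-only control, read with 5 µM Fluorescent Yellow dye. Each compound was tested in triplicate over seven concentrations (two-fold steps, top 1,000 or 100 μM). Spearman correlation of concentration versus ΔTma tested whether the shift was dose-responsive.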

SARS-CoV-2 NSP3 Mac1 [2] = target: T1, SARS-CoV-2 NSP3 Mac1; type: binding; settings: for Refined occupancy: ligand occupancy after refinement (phenix.refine)
[3] = PanDDA event map, 1 minus background density correction, crystal soaking of Mac1
[4] = ligand modeled from this dataset, compound concentration 100 mM
[5] = true hit = binding in crystallographic soaking or the HTRF-based binding assay
[6] = maximal thermal upshift vs DMSO control
[7] = overall hit flag: binding in crystallographic soaking or the HTRF-based binding assay
[8] = PanDDA 1-BDC value of the event, crystal soak, compound concentration 100 mM, per dataset
[9] = crystal soak, compound concentration 100 mM, per dataset
[10] = ligand modeled in the crystal structure, crystal soak, compound concentration 100 mM, per dataset

Cc1noc(-c2ccnc(-c3ccnc4[nH]ccc34)c2)n1 [ZINC001240411747]
Spearman est (compound concentration vs apparent Tm) (SARS-CoV-2 NSP3 Mac1 [1]): −0.16
DSF max dTma (SARS-CoV-2 NSP3 Mac1 [1]; maximal thermal upshift): 0.04 ˚C
1-BDC (PanDDA) (SARS-CoV-2 NSP3 Mac1 [2]; [3]): 0.07
Modeled? (SARS-CoV-2 NSP3 Mac1 [2]; [4]): TRUE
Refined occupancy (SARS-CoV-2 NSP3 Mac1 [2]; crystal soaking of Mac1): 14
HIT* (SARS-CoV-2 NSP3 Mac1 [2]; [5]): Y

Nc1nc(N)c2ncn(Cc3csc(Cl)n3)c2n1 [Z8572]
DSF max dTma (SARS-CoV-2 NSP3 Mac1 [1]; [6]): 1.1 °C
HIT* (SARS-CoV-2 NSP3 Mac1 [2]; [7]): Y

Cc1nnc(CNc2cnc(N)c(Cl)n2)n1C1CC1 [ZINC000893101964]
Spearman est (compound concentration vs apparent Tm) (SARS-CoV-2 NSP3 Mac1 [1]): −0.12
DSF max dTma (SARS-CoV-2 NSP3 Mac1 [1]; maximal thermal upshift): 0.12 ˚C
1-BDC (SARS-CoV-2 NSP3 Mac1 [2]; [8]): 0.04
1-BDC (SARS-CoV-2 NSP3 Mac1 [2]; [3]): 0.04
PanDDA hit? (SARS-CoV-2 NSP3 Mac1 [2]; [9]): TRUE
Modeled? (SARS-CoV-2 NSP3 Mac1 [2]; [10]): TRUE
Refined occupancy (SARS-CoV-2 NSP3 Mac1 [2]; crystal soaking of Mac1): 8
HIT* (SARS-CoV-2 NSP3 Mac1 [2]; [5]): Y

O=C(O)[C@@H]1CCCN(C(=O)c2ccnc3[nH]ccc23)C1 [REAL250000548538]
Spearman est (compound concentration vs apparent Tm) (SARS-CoV-2 NSP3 Mac1 [1]): 0.27
DSF max dTma (SARS-CoV-2 NSP3 Mac1 [1]; maximal thermal upshift): 0.25 ˚C
1-BDC (SARS-CoV-2 NSP3 Mac1 [2]; [3]): 0.08
Modeled? (SARS-CoV-2 NSP3 Mac1 [2]; [4]): TRUE
Refined occupancy (SARS-CoV-2 NSP3 Mac1 [2]; crystal soaking of Mac1): 16
HIT* (SARS-CoV-2 NSP3 Mac1 [2]; [5]): Y

O=C(c1cn[nH]c(=O)c1)N1CCC(CF)(C(=O)O)C1 (centres unmarked) [REAL250001448407]
Spearman est (compound concentration vs apparent Tm) (SARS-CoV-2 NSP3 Mac1 [1]): −0.24
DSF max dTma (SARS-CoV-2 NSP3 Mac1 [1]; maximal thermal upshift): 0 ˚C
1-BDC (SARS-CoV-2 NSP3 Mac1 [2]; [3]): 0.12
Refined occupancy (SARS-CoV-2 NSP3 Mac1 [2]; crystal soaking of Mac1): 24
HIT* (SARS-CoV-2 NSP3 Mac1 [2]; [5]): Y

CN(CCCC(=O)O)C(=O)c1ncnc2[nH]ccc12 [REAL250002155324]
Spearman est (compound concentration vs apparent Tm) (SARS-CoV-2 NSP3 Mac1 [1]): −0.27
DSF max dTma (SARS-CoV-2 NSP3 Mac1 [1]; maximal thermal upshift): 0.12 ˚C
1-BDC (SARS-CoV-2 NSP3 Mac1 [2]; [3]): 0.12
Refined occupancy (SARS-CoV-2 NSP3 Mac1 [2]; crystal soaking of Mac1): 24
HIT* (SARS-CoV-2 NSP3 Mac1 [2]; [5]): Y

Cc1nc(Cn2cnc3c(N)nc(N)nc32)cs1 [Z8569]
DSF max dTma (SARS-CoV-2 NSP3 Mac1 [1]; [6]): 0.53 °C
HIT* (SARS-CoV-2 NSP3 Mac1 [2]; [7]): Y

Nc1ncnc2c1ncn2Cc1cccc(C(F)(F)F)c1 [ZINC000110510893]
Spearman est (compound concentration vs apparent Tm) (SARS-CoV-2 NSP3 Mac1 [1]): 0.5
DSF max dTma (SARS-CoV-2 NSP3 Mac1 [1]; [6]): 0.5 °C
1-BDC (SARS-CoV-2 NSP3 Mac1 [2]; PanDDA 1-BDC (background density correction) of the event, crystal soak 100 mM, PanDDA run dmso_34): 0.35
1-BDC (SARS-CoV-2 NSP3 Mac1 [2]; [3]): 0.35
PanDDA hit? (SARS-CoV-2 NSP3 Mac1 [2]; crystal soak, compound concentration 100 mM, PanDDA run dmso_34, series docking_lead-like_1): TRUE
Modeled? (SARS-CoV-2 NSP3 Mac1 [2]; ligand modeled in the crystal structure, crystal soak 100 mM, PanDDA run dmso_34): TRUE
Refined occupancy (SARS-CoV-2 NSP3 Mac1 [2]; crystal soaking of Mac1): 70
HIT* (SARS-CoV-2 NSP3 Mac1 [2]; [7]): Y

CC1(C(=O)O)CCN(C(=O)Cc2c[nH]c3nccc(Cl)c23)C1 (centres unmarked) [FRESH00014134848]
Spearman est (compound concentration vs apparent Tm) (SARS-CoV-2 NSP3 Mac1 [1]): 0.41
DSF max dTma (SARS-CoV-2 NSP3 Mac1 [1]; maximal thermal upshift): 0.07 ˚C
1-BDC (SARS-CoV-2 NSP3 Mac1 [2]; [3]): 0.11
Refined occupancy (SARS-CoV-2 NSP3 Mac1 [2]; crystal soaking of Mac1): 22
HIT* (SARS-CoV-2 NSP3 Mac1 [2]; [5]): Y

CC1CC(C(=O)O)N1C(=O)c1cc(O)nc2ccc(F)cc12.O=C(O)C(F)(F)F (centres unmarked) [REAL300007260658]
Spearman est (compound concentration vs apparent Tm) (SARS-CoV-2 NSP3 Mac1 [1]): −0.11
DSF max dTma (SARS-CoV-2 NSP3 Mac1 [1]; maximal thermal upshift): 0.37 ˚C
1-BDC (SARS-CoV-2 NSP3 Mac1 [2]; PanDDA event map, 1-BDC of the hit dataset, crystal soak, compound concentration 100 mM): 0.18
1-BDC (SARS-CoV-2 NSP3 Mac1 [2]; [3]): 0.11
Refined occupancy (SARS-CoV-2 NSP3 Mac1 [2]; crystal soaking of Mac1): 22
HIT* (SARS-CoV-2 NSP3 Mac1 [2]; [5]): Y

CN(Cc1nnc2c(=O)[nH]ccn12)c1ccc2nccnc2n1 [ZINC001472868186]
Spearman est (compound concentration vs apparent Tm) (SARS-CoV-2 NSP3 Mac1 [1]): 0.79
DSF max dTma (SARS-CoV-2 NSP3 Mac1 [1]; [6]): 0.81 °C
1-BDC (SARS-CoV-2 NSP3 Mac1 [2]; [3]): 0.15
1-BDC (SARS-CoV-2 NSP3 Mac1 [2]; PanDDA event map, crystal soak, Compound_concentration 30 mM, PanDDA run dmso_34): 0.15
PanDDA hit? (SARS-CoV-2 NSP3 Mac1 [2]; crystal soak, Compound_concentration 30 mM, Echo dispense 40 nl, PanDDA run dmso_34): TRUE
Modeled? (SARS-CoV-2 NSP3 Mac1 [2]; ligand modeled in structure, crystal soak, Compound_concentration 30 mM): TRUE
Refined occupancy (SARS-CoV-2 NSP3 Mac1 [2]; crystal soaking of Mac1): 30
HIT* (SARS-CoV-2 NSP3 Mac1 [2]; [7]): Y

O=C(Nc1ccc(C(=O)N2CC(C(=O)O)Cc3ccccc32)cc1)NC1CC1 (centres unmarked) [8539_0038]
Spearman est (compound concentration vs apparent Tm) (SARS-CoV-2 NSP3 Mac1 [1]): 0.19
DSF max dTma (SARS-CoV-2 NSP3 Mac1 [1]; maximal thermal upshift): 0.98 ˚C
1-BDC (SARS-CoV-2 NSP3 Mac1 [2]; [8]): 0.06
1-BDC (SARS-CoV-2 NSP3 Mac1 [2]; [3]): 0.06
PanDDA hit? (SARS-CoV-2 NSP3 Mac1 [2]; [9]): TRUE
Modeled? (SARS-CoV-2 NSP3 Mac1 [2]; [10]): TRUE
Refined occupancy (SARS-CoV-2 NSP3 Mac1 [2]; crystal soaking of Mac1): 12
HIT* (SARS-CoV-2 NSP3 Mac1 [2]; [5]): Y

O=C(O)C[C@@H]1CCCN(c2ncnc3nc[nH]c23)C1 [REAL250002852032]
Spearman est (compound concentration vs apparent Tm) (SARS-CoV-2 NSP3 Mac1 [1]): 0.29
DSF max dTma (SARS-CoV-2 NSP3 Mac1 [1]; maximal thermal upshift): 0.58 ˚C
1-BDC (SARS-CoV-2 NSP3 Mac1 [2]; [3]): 0.19
Refined occupancy (SARS-CoV-2 NSP3 Mac1 [2]; crystal soaking of Mac1): 38
HIT* (SARS-CoV-2 NSP3 Mac1 [2]; [5]): Y
